The source of these data is patent publication US20130165428A1, “XANTHINE DERIVATIVES, THE PREPARATION THEREOF AND THEIR USE AS PHARMACEUTICAL COMPOSITIONS” (Boehringer Ingelheim Pharma GmbH & Co. KG, priority 2001, published 2013).

The target of one data set is T1, DPP-IV (Homo sapiens, UniProt P27487).
T1 construct: an extract of the human colon carcinoma cell line Caco-2 is used as the DPP IV source; host or cells: Caco-2 (differentiated to induce DPP-IV expression), Nonidet-P40 solubilised extract
T1 sequence (P27487 whole entry): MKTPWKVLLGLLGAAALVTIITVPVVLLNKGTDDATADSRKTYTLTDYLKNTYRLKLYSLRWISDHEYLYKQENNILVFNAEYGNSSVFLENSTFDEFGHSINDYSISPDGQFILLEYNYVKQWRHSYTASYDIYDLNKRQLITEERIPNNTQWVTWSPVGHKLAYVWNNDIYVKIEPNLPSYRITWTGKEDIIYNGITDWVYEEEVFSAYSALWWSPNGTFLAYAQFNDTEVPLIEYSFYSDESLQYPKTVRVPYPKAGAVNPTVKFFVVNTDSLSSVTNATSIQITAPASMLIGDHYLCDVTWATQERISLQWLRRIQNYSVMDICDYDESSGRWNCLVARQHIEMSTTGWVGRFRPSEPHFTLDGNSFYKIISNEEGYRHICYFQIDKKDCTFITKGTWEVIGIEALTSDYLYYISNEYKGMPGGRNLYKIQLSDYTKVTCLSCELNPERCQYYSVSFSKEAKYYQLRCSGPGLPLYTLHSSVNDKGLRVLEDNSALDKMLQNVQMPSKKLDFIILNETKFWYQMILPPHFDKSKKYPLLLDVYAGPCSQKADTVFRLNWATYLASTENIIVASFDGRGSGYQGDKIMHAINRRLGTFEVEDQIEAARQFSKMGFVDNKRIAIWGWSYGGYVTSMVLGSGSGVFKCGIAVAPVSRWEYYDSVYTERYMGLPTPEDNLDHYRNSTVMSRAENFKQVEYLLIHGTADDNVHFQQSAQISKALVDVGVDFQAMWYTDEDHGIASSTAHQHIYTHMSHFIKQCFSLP
As to the kind of experiment: DPP-IV assay with extract of Caco-2 cells as DPP IV source. In kind it is biochemical. The conditions noted are these: extract of human colon carcinoma cell line Caco-2 as DPP IV source, substrate AFC 100 μM, 60 minutes, ambient temperature; read-out: DPP IV inhibition IC50. On the procedure:
This cell line was obtained from the American Type Culture Collection (ATCC HTB 37). […] The cell extract was obtained from cells solubilised in a buffer (10 mM Tris HCl, 0.15 M NaCl, 0.04 t.i.u. aprotinin, 0.5% Nonidet-P40, pH 8.0) by centrifugation at 35,000 g for 30 minutes at 4° C. (to remove cell debris).
The DPP-IV assay was carried out as follows:
50 μl of substrate solution (AFC; AFC is amido-4-trifluoromethylcoumarin), final concentration 100 μM, were placed in black microtitre plates. 20 μl of assay buffer (final concentrations 50 mM Tris HCl pH 7.8, 50 mM NaCl, 1% DMSO) was pipetted in. The reaction was started by the addition of 30 μl of solubilised Caco-2 protein (final concentration 0.14 μg of protein per well). The test substances under investigation were typically added prediluted to 20 μl, while the volume of assay buffer was then reduced accordingly. The reaction was carried out at ambient temperature, the incubation period was 60 minutes. […] Dummy values (corresponding to 0% activity) were obtained in mixtures with no Caco-2 protein (volume replaced by assay buffer), control values (corresponding to 100% activity) were obtained in mixtures without any added substance.
On to `CC(C)=CCn1c(N2CCCC(N)C2)nc2c1c(=O)n(CCc1ccccn1)c(=O)n2C` (stereo not shown) [1(60), 1-[2-(pyridin-2-yl)-ethyl]-3-methyl-7-(3-methyl-2-buten-1-yl)-8-(3-amino-piperidin-1-yl)-xanthine], for which the IC50 (commonly the concentration at which inhibition is half-maximal) came out at 57 nM.

Turning to `Cn1c(=O)c2c(nc(N3CCCC(N)C3)n2Cc2ccccc2)n(CC(=O)O)c1=O` (stereo not shown) [Example 6, 1-methyl-3-carboxymethyl-7-benzyl-8-(3-amino-piperidin-1-yl)-xanthine], the half-inhibitory concentration (IC50) was determined as 55 nM.

As to `CC(C)=CCn1c(N2CCCC(N)C2)nc2c1c(=O)n(CCc1cccc(C)c1)c(=O)n2C` (stereo not shown) [1(55), 1-[2-(3-methyl-phenyl)-ethyl]-3-methyl-7-(3-methyl-2-buten-1-yl)-8-(3-amino-piperidin-1-yl)-xanthine], the 50% inhibitory concentration (IC50) amounted to 142 nM.

Turning to `CC(C)=CCn1c(N2CCCC(N)C2)nc2c1c(=O)n(C)c(=O)n2CCc1ccc(F)cc1` (stereo not shown) [2(77), 1-methyl-3-[2-(4-fluoro-phenyl)-ethyl]-7-(3-methyl-2-buten-1-yl)-8-(3-amino-piperidin-1-yl)-xanthine], the IC50 is 22 nM.

On to `CC(C)=CCn1c(N2CCCNCC2)nc2c1c(=O)n(CCc1ccccc1)c(=O)n2C` [1(97), 1-(2-phenyl-ethyl)-3-methyl-7-(3-methyl-2-buten-1-yl)-8-(homopiperazin-1-yl)-xanthine], for which the IC50 is 212 nM.

On to `C#CCOc1cccc(C(=O)Cn2c(=O)c3c(nc(N4CCCC(N)C4)n3CC=C(C)C)n(C)c2=O)c1` (stereo not shown) [2(85), 1-{2-oxo-2-[3-(2-propyn-1-yloxy)-phenyl]-ethyl}-3-methyl-7-(3-methyl-2-buten-1-yl)-8-(3-amino-piperidin-1-yl)-xanthine], for which the IC50 came to 17 nM.

For the compound `CC(C)=CCn1c(N2CCCC(N)C2)nc2c1c(=O)n(CCO)c(=O)n2C` (stereo not shown) [1(27), 1-(2-hydroxyethyl)-3-methyl-7-(3-methyl-2-buten-1-yl)-8-(3-amino-piperidin-1-yl)-xanthine], the IC50 is 125 nM.

Consider `CC(C)=CCn1c(N2CCCC(N)C2)nc2c1c(=O)n(C)c(=O)n2CC(=O)c1ccccc1` (stereo not shown) [2(56), 1-methyl-3-(2-phenyl-2-oxo-ethyl)-7-(3-methyl-2-buten-1-yl)-8-(3-amino-piperidin-1-yl)-xanthine], for which the IC50 is 64 nM.

As for `CCn1c(=O)c2c(nc(N3CCCC(N)C3)n2CC=C(C)C)n(C)c1=O` (stereo not shown) [1(16), 1-ethyl-3-methyl-7-(3-methyl-2-buten-1-yl)-8-(3-amino-piperidin-1-yl)-xanthine], the IC50 was found to be 78 nM.

For the compound `CC(C)=CCn1c(N2CCC[C@H](N)C2)nc2c1c(=O)n(CCc1cccc(O)c1)c(=O)n2C` [2(22), 1-[2-(3-hydroxy-phenyl)-ethyl]-3-methyl-7-(3-methyl-2-buten-1-yl)-8-((S)-3-amino-piperidin-1-yl)-xanthine], the IC50 worked out at 66 nM.

Turning to `CC(C)=CCn1c(N2CCCC(N)C2)nc2c1c(=O)n(C(C)C)c(=O)n2C` (stereo not shown) [1(19), 1-(2-propyl)-3-methyl-7-(3-methyl-2-buten-1-yl)-8-(3-amino-piperidin-1-yl)-xanthine], the IC50 came to 2770 nM.

As for `COCCn1c(=O)c2c(nc(N3CCCC(N)C3)n2CC=C(C)C)n(C)c1=O` (stereo not shown) [1(28), 1-(2-methoxyethyl)-3-methyl-7-(3-methyl-2-buten-1-yl)-8-(3-amino-piperidin-1-yl)-xanthine], the IC50 amounted to 166 nM.

`CC(C)=CCn1c(N2CCCC(N)C2)nc2c1c(=O)n(CC(=O)c1ccccc1N)c(=O)n2C` (stereo not shown) [2(136), 1-[2-(2-amino-phenyl)-2-oxo-ethyl]-3-methyl-7-(3-methyl-2-buten-1-yl)-8-(3-amino-piperidin-1-yl)-xanthine]: the concentration for half-maximal inhibition (IC50) stood at 3 nM.

For the compound `CC(C)=CCn1c(N2CCCC(N)C2)nc2c1c(=O)n(Cc1ccccn1)c(=O)n2C` (stereo not shown) [2(113), 1-[(pyridin-2-yl)methyl]-3-methyl-7-(3-methyl-2-buten-1-yl)-8-(3-amino-piperidin-1-yl)-xanthine], the IC50 was found to be 20 nM.

Consider `CCn1c(=O)n(C)c(=O)c2c1nc(N1CCCC(N)C1)n2Cc1ccccc1` (stereo not shown) [1(34), 1-methyl-3-ethyl-7-benzyl-8-(3-amino-piperidin-1-yl)-xanthine], for which the IC50 was determined as 205 nM.

Take `CC(C)=CCn1c(N2CCCC(N)C2)nc2c1c(=O)n(Cc1cccc3ccccc13)c(=O)n2C` (stereo not shown) [2(127), 1-[(1-naphthyl)methyl]-3-methyl-7-(3-methyl-2-buten-1-yl)-8-(3-amino-piperidin-1-yl)-xanthine]: the IC50 was determined as 22 nM.

As for `CC(C)=CCn1c(N2CCCC(N)C2)nc2c1c(=O)n(CC(=O)c1cccc(OCC#N)c1)c(=O)n2C` (stereo not shown) [2(88), 1-[2-(3-cyanomethoxy-phenyl)-2-oxo-ethyl]-3-methyl-7-(3-methyl-2-buten-1-yl)-8-(3-amino-piperidin-1-yl)-xanthine], the IC50 came to 6 nM.

`CC(C)=CCn1c(N[C@@H]2CCCC[C@@H]2N)nc2c1c(=O)n(C)c(=O)n2C` (relative stereo) [1(6), 1,3-dimethyl-7-(3-methyl-2-buten-1-yl)-8-[(cis-2-amino-cyclohexyl)amino]-xanthine]: the concentration for half-maximal inhibition (IC50) was 230 nM.

Consider `Cc1cccc(-n2c(N3CCCC(N)C3)nc3c2c(=O)n(C)c(=O)n3C)c1` (stereo not shown) [1(62), 1,3-dimethyl-7-(3-methyl-phenyl)-8-(3-amino-piperidin-1-yl)-xanthine], for which the IC50 worked out at 167 nM.

Turning to `CC(C)=CCn1c(N2CCCC(N)C2)nc2c1c(=O)n(CCN(C)C)c(=O)n2C` (stereo not shown) [1(30), 1-[2-(dimethylamino)ethyl]-3-methyl-7-(3-methyl-2-buten-1-yl)-8-(3-amino-piperidin-1-yl)-xanthine], the half-inhibitory concentration (IC50) stood at 2050 nM.

Staying with this data set, now noted: read-out: DPP IV inhibition IC50.
`CC(C)=CCn1c(N(C)CC(N)C(=O)N(C)C)nc2c1c(=O)n(C)c(=O)n2C` (stereo not shown) [2(131), 1,3-dimethyl-7-(3-methyl-2-buten-1-yl)-8-[N-(2-amino-3-dimethylamino-3-oxo-propyl)-N-methyl-amino]-xanthine×trifluoroacetic acid]: the IC50 came to 127 nM.

The subject of another data set is rats. The experiment in a line: Tolerability after oral administration in rats. In kind it is in vivo. The conditions noted are these: oral administration of 30 mg/kg.
Turning to `Cn1c(=O)c2c(nc(N3CCCC(N)C3)n2Cc2ccccc2)n(C)c1=O` (stereo not shown) [Example 1(2), 1,3-dimethyl-7-benzyl-8-(3-amino-piperidin-1-yl)-xanthine], the “toxic side effects / tolerability” value is reported as “no toxic side effects could be detected”.

System in the next data set: not given
Assay: not given
Settings: not given
As for `CC(C)=CCn1c(N2CCCC(N)C2)nc2c1c(=O)n(CCc1ccccn1)c(=O)n2C` (stereo not shown) [1(60), 1-[2-(pyridin-2-yl)-ethyl]-3-methyl-7-(3-methyl-2-buten-1-yl)-8-(3-amino-piperidin-1-yl)-xanthine], the melting point (in general, the temperature of the solid-liquid transition) lay within 117 to 120 °C.

`Cn1c(=O)c2c(nc(N3CCCC(N)C3)n2Cc2ccccc2)n(CC(=O)O)c1=O` (stereo not shown) [Example 6, 1-methyl-3-carboxymethyl-7-benzyl-8-(3-amino-piperidin-1-yl)-xanthine] yielded a melting point of 212 to 215 °C.

Consider `CC(C)=CCn1c(N2CCC[C@H](N)C2)nc2c1c(=O)n(CCc1cccc(O)c1)c(=O)n2C` [2(22), 1-[2-(3-hydroxy-phenyl)-ethyl]-3-methyl-7-(3-methyl-2-buten-1-yl)-8-((S)-3-amino-piperidin-1-yl)-xanthine], for which the melting point fell in the range of 168 to 170 °C.
